Results: article PMC6856805, “Environmental Risk Assessment for the Active Pharmaceutical Ingredient Mycophenolic Acid in European Surface Waters” (Environmental Toxicology and Chemistry, 2019)
Values after ≈ are worked out from the molar mass of the structure shown. Read-outs that look alike come from different tables or passages of the source.

Columns and labels:
[1] = Screening vapor pressure; assay type: physicochemical
Text: (§1) Syntex derived many basic physicochemical properties for both MPM and MPA in the early 1990s. The results for MPA are mostly given in the present study.
The vapour pressure of MPA was estimated by Syntex by comparing losses of MPA under a nitrogen stream with losses in capped vials and comparing the results with the same losses of a reference substance of known vapour pressure (Young & Licato 1994a).

[2] = Solubility in buffered aqueous solutions; assay type: physicochemical; conditions: buffered aqueous solution, 25 °C, aqueous buffer, read-out: Solubility in water
Text: as §1

[3] = system: Danio rerio; assay: Fish partial life cycle test, OECD 229 short-term reproduction phase (F0); assay type: in vivo
Description: At the highest tested concentration of 0.1 mg MPA/L nominal concentration (73 µg/L GMMC), only 2 of 75 hatched fish survived until the end of the test, showing that the test concentration range was well chosen. The most sensitive endpoints in this partial life cycle test were survival and growth in terms of length and mass of the young F1 fish; the effects were comparatively small but statistically significant at p = 0.05. In contrast, the F0 generation was impacted to a lesser extent.
In view of the mammalian mutagenicity and reprotoxicity, a fish partial life-cycle test (PLC; an OECD 229 short-term reproduction test followed by an OECD 210 early-life-stage test) was performed by ECT Oekotoxikologie under GLP with a series of concentrations of MPA in a flow-through setting with the zebrafish Danio rerio (Gilberg & Chambers 2018). Briefly, mature fish (F0 generation) in breeding groups of 14 fish were exposed to four concentrations of the test item (0.0005, 0.0029, 0.0171 and 0.100 mg MPA/L), in fish media as well as to controls without the test item, in two replicates per treatment including controls, for 23 days in a 14-hours light to 10-hours dark photoperiod (OECD 229 phase). During this time period, reproduction parameters (survival of parents, fecundity, e.g., number of eggs, fertility and embryo viability/hatchability) of zebrafish exposed to the test item were assessed in comparison with the controls to determine the lowest observed effect concentration (LOEC) and the NOEC. After 23 days, newly fertilised eggs of the F1 generation were collected and exposed to the corresponding series of test item concentrations, 20 eggs in four replicates each per treatment including controls, until 30 days post-hatch (OECD 210 phase). Lethal and sublethal effects of the test item on eggs, larvae and juvenile fish exposed to the test item were assessed in comparison with controls to determine the LOEC and the NOEC. Samples were taken and analysed by LC–MS/MS (Supplemental Information) and the GMMC for the concentrations determined. Statistical check were made using Probit analyses, Weibull analyses, 2- and 3-parameter normal CDF, Shapiro-Wilk’s test on normal distribution, Levene’s test on variance homogeneity, Fisher's Exact Binomial test, Chi² 2×2 Table Test, Welsh t-test, Step-down Cochran-Armitage test Procedure, Williams Multiple Sequential t-test Procedure and Dunnett`s Multiple t-test Procedure.

[4] = Antibiotic resistance risk quotient (PEC or MEC / PNECABR)
Description: Antibiotic resistance risk is assessed through comparing PECs or MECs with a PNEC for formation or maintenance of antibiotic resistance (PNECABR). There is no universally accepted or regulatory algorithm for deriving a reliable PNECABR for bacteria, so for the time being this is approximated by applying assessment factors to bacterial minimal inhibitory concentrations (MICs). […] To be fully consistent with Bengtsson‐Palme and Larsson's (2016) approach to PNECABR derivation, the authors were contacted for help; they (J. Bengtsson‐Palme, Department of Infectious Diseases, Institute of Biomedicine, The Sahlgrenska Academy, University of Gothenberg, Gothenberg, Sweden, personal communication) state that “we only use species with 10 or more MIC observations, to avoid drawing conclusions from insufficient data […] . The only species with >10 observations in the Noto et al. (1969) paper is S[taphylococcus] aureus. In addition, when the MIC1% are selected, only one MIC [J.O.Straub's italics] value is selected per species (the lowest). Finally, the uncertainty factor for low sampling numbers is calculated as: (observed lowest MIC) × (number of tested species) ÷ 41.” Both these provisional PNECABR values were derived from the MPA MICs; the lower was selected and compared with the PECs and MECs.
This provisional PNECABR of 64 µg MPA/L can now be compared with the PECs for STPs and surface water and with the highest MECs available. […] For surface waters, all PECs including the highest, the Guadalquivir River low‐flow 99th %ile ePiE PEC, were below the PNECABR, and thus all risk quotients were ≤0.194, all refined PEC‐per‐country risk quotients were ≤0.0083, and all mean‐ and low‐flow median ePiE PEC risk quotients were ≤0.00033; finally, the highest MEC risk quotient was 0.0103. Both models and measurements imply that throughout Europe, even in the worst‐case scenario of a southern Mediterranean catchment with extremely low river flow in summer, no significant antibiotic resistance risk emerges for MPA.

For `COc1c(C)c2c(c(O)c1CC=C(C)CCC(=O)O)C(=O)OC2` [MPA, 6‐(1,3‐dihydro‐4‐hydroxy‐6‐methoxy‐7‐methyl‐3‐oxo‐5‐isobenzofuranyl)‐4‐methyl‐4‐hexenoic acid], the Vapor pressure [1] was < 10^–6 hPa, the solubility ([2]; pH 5, 25 ± 2 °C) was 45 µg/mL (≈ 140 µM) and the solubility ([2]; pH 7, 25 ± 2 °C) was 710 µg/mL (≈ 2220 µM). For the same compound, the “EC10 for survival of the parental fish” value ([3]; 23 d, GMMC) was 0.0189 µg/mL, the “NOEC of all endpoints (survival of parental fish, fecundity, fertilization success), F0” value ([3]; 23 d, GMMC) was 73 µg/L and the “NOEC of all endpoints (survival of parental fish, fecundity, fertilization success), F0” value ([3]; 23 d, highest tested nominal concentration) was 100 µg MPA/L. The “EC10 for fecundity and fertilization success” value ([3]; Danio rerio, in vivo, 23 days) was > 73 µg MPA/L, the “antibiotic resistance risk quotient, highest MEC” value [4] was 0.0103 and the “antibiotic resistance risk quotients, all mean‐ and low‐flow median ePiE PEC” value [4] was ≤ 0.00033. The “antibiotic resistance risk quotients, all refined PEC‐per‐country” value [4] was ≤ 0.0083, the “antibiotic resistance risk quotient, STPs” value ([4]; highest STP effluent MEC 4.19 µg/L) was 0.065 and the “antibiotic resistance risk quotient, STPs” value ([4]; highest refined PECSTP 8.83 µg MPA/L) was 0.138. The “antibiotic resistance risk quotients, surface waters, all PECs” value ([4]; including Guadalquivir low‐flow 99th %ile ePiE PEC) was ≤ 0.194.
